Patent US20060147481A1 (priority 2005, published 2006)

Columns and labels:
[1] = tested on: PRRS (Porcine Respiratory and Reproductive Syndrome) Virus; assay: PRRS virus outbreak in swine nursery, Ketoprofen orally; assay type: in vivo; details: orally for 7 days along with same other therapy as controls
Excerpt: A swine client with a 10,000 head nursery was experiencing severe mortality due to a PRRS (Porcine Respiratory and Reproductive Syndrome) Virus outbreak. They had used antibiotics with only partial success and were seeing mortalities as high as 30 percent in the group. […] We also saw less chronic pigs in the treatment group 3% versus 15% in the controls.

[2] = tested on: chronic laminitis; assay: Horse with chronic laminitis, Ketoprofen in the water; assay type: in vivo; details: 1 mg per pound in the water for 2 weeks
Excerpt: An equine client with a horse with chronic laminitis was using phenylbutazone to try to control the inflammation and pain associated with the disease. This product had to be given to the horse daily by the owner. […] The results were very good.

[3] = tested on: swine influenza; assay type: in vivo, swine (finishing hogs)
[4] = tested on: platelet cyclo-oxygenase; details: horse, oral; cited from earlier work
[5] = 1 mg/pound for 3 days orally through drinking water

| SMILES | chronic pigs [1] [%] | mortality [1] [%] | pain compared with previous treatment (phenylbutazone) [2] | morbidity at the time of the outbreak [3, 5] [%] | mortality [3, 5] [%] | average time to market, less than the control group ([3]; 1 mg/pound for 3 days orally through drinking water, 150 pound hogs marketed at 260 pounds) [days] | follow-up mass medication with antibiotics ([3]; two weeks after the outbreak) | duration of inhibition of platelet cyclo-oxygenase [4] [h] |
| --- | --- | --- | --- | --- | --- | --- | --- | --- |
| CC(C(=O)O)c1cccc(C(=O)c2ccccc2)c1 (centres unmarked) [Ketoprofen] | 3 | 7 | less painful | 10 | 2.1 | 9 | did not require any mass medication with antibiotics | – |
| CN=C1CCN(c2cccc(C(F)(F)F)c2)N1 [BW540C] | – | – | – | – | – | – | – | 24 |
